From publication PMC10207715, “Dual inhibition of IDO1/TDO2 enhances anti-tumor immunity in platinum-resistant non-small cell lung cancer” (Cancer & Metabolism, 2023)
pIC50: −log10 of the molar value.

How the values were obtained:
[1] = target: T1, tryptophan 2,3-dioxygenase-2 (TDO2) (Homo sapiens, UniProt P48775); test: cellular kynurenine colorimetric assay in GL261-hTDO2 cells, […] h; format: cell-based
T1 construct: full-length human TDO2, overexpressed in GL261 cells

[2] = target: T2, indoleamine 2,3-dioxygenase-1 (IDO1) (Homo sapiens, UniProt P14902); test: cellular kynurenine colorimetric assay in LLC-hIDO1 cells, […] h; format: cell-based
T2 construct: human IDO1 in expression vector F279-V5/hIDO1, stably transfected in LLC cells
T2 sequence (P14902 whole entry): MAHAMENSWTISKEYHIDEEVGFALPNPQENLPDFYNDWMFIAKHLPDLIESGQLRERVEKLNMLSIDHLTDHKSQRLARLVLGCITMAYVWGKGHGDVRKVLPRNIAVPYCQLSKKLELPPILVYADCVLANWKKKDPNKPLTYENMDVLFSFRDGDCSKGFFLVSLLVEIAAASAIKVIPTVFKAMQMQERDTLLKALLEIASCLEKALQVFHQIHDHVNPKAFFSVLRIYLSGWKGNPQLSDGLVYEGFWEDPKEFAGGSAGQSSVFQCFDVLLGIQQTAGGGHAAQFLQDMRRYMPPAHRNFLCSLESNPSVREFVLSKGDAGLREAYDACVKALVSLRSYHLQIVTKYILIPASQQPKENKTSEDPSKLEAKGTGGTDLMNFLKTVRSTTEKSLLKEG

T1 sequence (P48775 whole entry): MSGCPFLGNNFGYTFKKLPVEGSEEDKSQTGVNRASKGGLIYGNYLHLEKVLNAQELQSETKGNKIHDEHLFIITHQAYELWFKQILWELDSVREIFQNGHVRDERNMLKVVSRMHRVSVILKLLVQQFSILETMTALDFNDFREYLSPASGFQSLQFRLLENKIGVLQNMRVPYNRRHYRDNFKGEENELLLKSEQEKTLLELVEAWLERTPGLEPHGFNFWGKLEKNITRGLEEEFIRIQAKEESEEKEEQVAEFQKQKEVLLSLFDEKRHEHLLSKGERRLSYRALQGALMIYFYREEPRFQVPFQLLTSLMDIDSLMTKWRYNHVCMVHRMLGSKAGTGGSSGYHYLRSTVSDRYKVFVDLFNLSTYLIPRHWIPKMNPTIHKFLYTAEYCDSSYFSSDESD

- pIC50 [1]: 6.60
- pIC50 [2]: 6.77
Substance: AT-0174
